This note sets out measurements from the NIST ThermoML archive (doi:10.1021/acs.jced.6b00399).

What is called mass density is the mass of a sample divided by its volume. As a reminder, the viscosity is the resistance of a fluid to flow.

For data set [1] the following is noted: Liquid; for mass density: 101.3 kPa, Pycnometric method; for viscosity: 298.15 K, 101.33 kPa, Capillary tube (Ostwald / Ubbelohde) method.
Data set [2] is described as follows: xn = mol fraction of the nth substance listed. The following applies: 101.3 kPa, Liquid, x1 = 0.66; for mass density: Pycnometric method.

Structures can show the parent of a compound that is named as a salt. Numbers after ± are expanded uncertainties.

Consider `CCOC(=O)CC(CC(=O)OCC)(OC(C)=O)C(=O)OCC` [triethyl acetyl citrate], for which the mass density in data set [1] (293.15 K) is 1142.1 ± 3.4 kg/m3; in data set [1] (303.15 K), 1134.1 ± 3.3 kg/m3; in data set [1] (313.15 K), 1124.2 ± 3.3 kg/m3; in data set [1] (323.15 K), 1112.9 ± 3.3 kg/m3. Also, in data set [1], the viscosity came to 46.55 ± 1.2 mPa·s.
Take `CCOC(=O)CC(O)(CC(=O)OCC)C(=O)OCC` [triethyl citrate]: the mass density in data set [1] (293.15 K) is recorded as 1137.1 ± 2.6 kg/m3; in data set [1] (303.15 K), 1131.3 ± 2.6 kg/m3; in data set [1] (313.15 K), 1122.4 ± 2.6 kg/m3; in data set [1] (323.15 K) it was 1114 ± 2.5 kg/m3. Besides, the viscosity in data set [1] was found to be 32.1 ± 0.64 mPa·s.
As for `OC1COCOC1` [1,3-dioxan-5-ol] + OCC1COCO1, the mass density in data set [2] (293.15 K) amounted to 1215.1 ± 2.8 kg/m3; in data set [2] (303.15 K) it was 1206.7 ± 2.8 kg/m3; in data set [2] (313.15 K), 1198.2 ± 2.8 kg/m3; in data set [2] (323.15 K), 1189.7 ± 2.8 kg/m3. Moreover, the viscosity in data set [2] (298.15 K, Capillary tube (Ostwald / Ubbelohde) method) is recorded as 20.05 ± 0.84 mPa·s.
As to `CC(=O)OCC(COC(C)=O)OC(C)=O` [glyceryl triethanoate], the mass density worked out at 1158.3 ± 2.5 kg/m3 in data set [1] (293.15 K), 1147.3 ± 2.4 kg/m3 in data set [1] (303.15 K), 1136.6 ± 2.4 kg/m3 in data set [1] (313.15 K) and 1125.7 ± 2.4 kg/m3 in data set [1] (323.15 K). Besides, the viscosity in data set [1] turned out to be 16.36 ± 0.68 mPa·s.
For `CC1(C)OCC(CO)O1` (stereo not given) [2,2-dimethyl-1,3-dioxolane-4-methanol], the mass density amounted to 1067.8 ± 2.4 kg/m3 in data set [1] (293.15 K), 1058.9 ± 2.4 kg/m3 in data set [1] (303.15 K), 1049.9 ± 2.4 kg/m3 in data set [1] (313.15 K) and 1040.8 ± 2.4 kg/m3 in data set [1] (323.15 K). Also, the viscosity in data set [1] is 10.06 ± 0.15 mPa·s.
